pKi: −log10 of the molar value. Counter-ions that a name gives are not always drawn.

The values below come from patent US8399503B2, “Spirocyclic azaindole derivatives” (Gruenenthal GmbH, priority 2006, dated 2013).

One data set concerns the target human μ-opiate receptor (Homo sapiens, UniProt P35372). Briefly: μ binding: [3H]-naloxone displacement, membrane preparation of CHO-K1 cells expressing the human μ-opiate receptor. The conditions noted are these: [3H]-naloxone 1 nmole/l; Cheng-Prusoff conversion; read-out: μ-Opioid receptor, Ki value.

Chain of human μ-opiate receptor (P35372 whole entry): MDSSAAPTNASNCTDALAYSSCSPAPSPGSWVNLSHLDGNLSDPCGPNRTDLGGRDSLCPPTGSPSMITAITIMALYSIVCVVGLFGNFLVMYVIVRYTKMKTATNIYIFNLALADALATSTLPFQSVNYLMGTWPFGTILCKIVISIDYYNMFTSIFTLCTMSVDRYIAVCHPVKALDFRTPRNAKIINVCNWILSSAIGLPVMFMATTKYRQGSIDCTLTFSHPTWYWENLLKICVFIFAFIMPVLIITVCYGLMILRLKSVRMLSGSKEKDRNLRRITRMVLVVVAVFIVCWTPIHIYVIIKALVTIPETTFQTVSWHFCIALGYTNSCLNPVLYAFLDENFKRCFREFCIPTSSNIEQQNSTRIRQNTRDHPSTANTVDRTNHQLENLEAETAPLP

Broadly, the melting point is the temperature of the solid-liquid transition. `CN(C)C1(c2ccccc2)CCC2(CC1)SCCc1c2[nH]c2ncccc12` (stereo not drawn) (as salt: citrate) showed a melting point of 246 to 253 °C.

In turn, `CN(C)C1(c2ccccc2)CCC2(CC1)SCCc1c2[nH]c2ccncc12` (stereo not drawn) (as salt: citrate) had a melting point of 163 to 168 °C.

For orientation: pKi means the Ki on a negative log10 scale, so that one unit is a factor of ten. On to `c1ccc(CC2(N3CCOCC3)CCC3(CC2)OCCc2c3[nH]c3ncccc23)cc1` (stereo not drawn) [Example 19, 4-benzyl-4-morpholino-spiro[cyclohexane-1,8′-(5,6,8,9-tetrahydropyrano[3,4-b]-7-azaindole)]], for which the pKi on human μ-opiate receptor is 5.54.
